The values below come from BindingDB's records for doi:10.1016/j.bmcl.2021.127992 (Kyung Hee University, 2021).

pIC50: −log10 of the molar value.

The target in this experiment is T1, Prostaglandin E synthase (Homo sapiens, UniProt O14684).
T1 sequence (O14684 whole entry): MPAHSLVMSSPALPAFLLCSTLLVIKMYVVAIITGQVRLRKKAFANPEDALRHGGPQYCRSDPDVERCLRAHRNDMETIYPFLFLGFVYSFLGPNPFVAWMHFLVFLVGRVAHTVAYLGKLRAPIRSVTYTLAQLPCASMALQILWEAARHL
The experiment is described as follows: Inhibition of mPGES-1 in human A549 cells assessed as reduction in IL-1beta stimulated […] production.
For `O=C(Oc1ccc(OCc2ccccc2)cc1)N(Nc1ccccc1)S(=O)(=O)c1ccc(Cl)cc1`, the pIC50 – broadly, the negative decadic logarithm of the IC50, by convention in mol/L – was 6.60.
Turning to `O=C(Oc1ccc(OCc2ccccc2)cc1)N(Cc1ccccc1)S(=O)(=O)c1ccc(Cl)cc1`, the pIC50 was 5.70.
Consider `O=C(Nc1ccc(OCCCCc2ccccc2)cc1)N(Cc1ccccc1)S(=O)(=O)c1ccc(Cl)cc1`, for which the pIC50 was 6.00.
